Reference: patent publication US10472358B2, “1H-pyrrolo[2,3-c]pyridin-7(6H)-ones and pyrazolo[3,4-c]pyridin-7(6H)-ones as inhibitors of BET proteins” (Incyte Corporation, priority 2014, dated 2019)

Each molecule was assayed on KMS.12.BM cells (assay: KMS.12.BM cell viability assay (Cell Titer-GLO, ATP quantitation)). Conditions: KMS-12-BM, 72 h; human myeloma cells, 3 days, concentration required for 50% cell death.
Type: cell-based
Protocol: Example B1: KMS.12.BM Cell Viability Assay
KMS.12.BM cell line (human myeloma) was purchased from JCRB (Osaka, Japan) and maintained in RPMI with 10% FBS culture medium. To measure the cytotoxic activity of the compounds through ATP quantitation, the KMS.12.BM cells are plated in the RPMI culture medium at 5000 cells/well/per 100 μL into a 96-well polystyrene clear black tissue culture plate (Greiner-bio-one through VWR, NJ), in the presence or absence of a concentration range of test compounds. After 3 days, […] Cell Titer-GLO Luminescent (Promega, Madison, Wis.) cell culture agent is added to each well for 10 minutes at room temperature to stabilize the luminescent signal. This determines the number of viable cells in culture based on quantitation of the ATP present, which signals the presence of metabolically active cells. Luminescence is measured with the Top Count 384 (Packard Bioscience through Perkin Elmer, Boston, Mass.). Compound inhibition is determined relative to cells cultured with no drug and the IC50 is reported as the compound concentration required for 50% cell death.
In the case of `COc1cc2c(c(-c3cn(C)c(=O)c4[nH]ccc34)c1)OC(C(C)C)C(=O)N2` (single isomer, unassigned) [Example 9A, 2-isopropyl-6-methoxy-8-(6-methyl-7-oxo-6,7-dihydro-1H-pyrrolo[2,3-c]pyridin-4-yl)-2H-1,4-benzoxazin-3(4H)-one], the IC50 is reported as at most 1000 nM. Molecule `COc1cc2c(c(-c3cn(C)c(=O)c4[nH]ccc34)c1)OC(c1ccccc1)C(=O)N2` (single isomer, unassigned) [Example 24A, 6-methoxy-8-(6-methyl-7-oxo-6,7-dihydro-1H-pyrrolo[2,3-c]pyridin-4-yl)-2-phenyl-2H-1,4-benzoxazin-3(4H)-one] has an IC50 of at most 1000 nM. Molecule `COc1cc2c(c(-c3cn(C)c(=O)c4[nH]ccc34)c1)OC(C1CCCC1)C(=O)N2` (single isomer, unassigned) [Example 35A, 2-Cyclopentyl-6-methoxy-8-(6-methyl-7-oxo-6,7-dihydro-1H-pyrrolo[2,3-c]pyridin-4-yl)-2H-1,4-benzoxazin-3(4H)-one] has an IC50 of at most 1000 nM. With `COc1cc2c(c(-c3cn(C)c(=O)c4[nH]ncc34)c1)OC(C1CCCC1)C(=O)N2` (single isomer, unassigned) [Example 42A, 2-cyclopentyl-6-methoxy-8-(6-methyl-7-oxo-6,7-dihydro-1H-pyrazolo[3,4-c]pyridin-4-yl)-2H-1,4-benzoxazin-3(4H)-one] the IC50 was at most 1000 nM. Molecule `CC(C)C1Oc2c(cc(S(C)(=O)=O)cc2-c2cn(C)c(=O)c3[nH]ccc23)NC1=O` (single isomer, unassigned) [Example 44A, 2-isopropyl-8-(6-methyl-7-oxo-6,7-dihydro-1H-pyrrolo[2,3-c]pyridin-4-yl)-6-(methylsulfonyl)-2H-1,4-benzoxazin-3(4H)-one] has an IC50 of at most 1000 nM. For `CC(C)C1Oc2c(-c3cn(C)c(=O)c4[nH]ccc34)cc(S(C)(=O)=O)cc2N(C)C1=O` (single isomer, unassigned) [Example 47A, 2-isopropyl-4-methyl-8-(6-methyl-7-oxo-6,7-dihydro-1H-pyrrolo[2,3-c]pyridin-4-yl)-6-(methylsulfonyl)-2H-1,4-benzoxazin-3(4H)-one], the IC50 was at most 1000 nM. `CC(O)c1cc(-c2cn(C)c(=O)c3[nH]ccc23)c2c(c1)N(C)C(=O)C(C)(C)O2` (single isomer, unassigned) [Example 83A, 6-(1-hydroxyethyl)-2,2,4-trimethyl-8-(6-methyl-7-oxo-6,7-dihydro-1H-pyrrolo[2,3-c]pyridin-4-yl)-2H-1,4-benzoxazin-3(4H)-one] gave an IC50 of at most 1000 nM. In the case of `Cn1cc(-c2cccc3c2OC(c2ccccc2)C(=O)N3)c2cc[nH]c2c1=O` (centres unmarked) [Example 1, 8-(6-methyl-7-oxo-6,7-dihydro-1H-pyrrolo[2,3-c]pyridin-4-yl)-2-phenyl-2H-1,4-benzoxazin-3(4H)-one], the IC50 is reported as at most 1000 nM. `CC(C)C1Oc2c(cccc2-c2cn(C)c(=O)c3[nH]ccc23)NC1=O` (centres unmarked) [Example 2, 2-isopropyl-8-(6-methyl-7-oxo-6,7-dihydro-1H-pyrrolo[2,3-c]pyridin-4-yl)-2H-1,4-benzoxazin-3(4H)-one] gave an IC50 of at most 1000 nM. `CC1Oc2c(cccc2-c2cn(C)c(=O)c3[nH]ccc23)NC1=O` (centres unmarked) [Example 3, 2-methyl-8-(6-methyl-7-oxo-6,7-dihydro-1H-pyrrolo[2,3-c]pyridin-4-yl)-2H-1,4-benzoxazin-3(4H)-one] showed an IC50 of at most 1000 nM. With `CCC1Oc2c(cccc2-c2cn(C)c(=O)c3[nH]ccc23)NC1=O` (centres unmarked) [Example 4, 2-ethyl-8-(6-methyl-7-oxo-6,7-dihydro-1H-pyrrolo[2,3-c]pyridin-4-yl)-2H-1,4-benzoxazin-3(4H)-one] the IC50 was at most 1000 nM. Molecule `Cn1cc(-c2cccc3c2OC(C2CC2)C(=O)N3)c2cc[nH]c2c1=O` (centres unmarked) [Example 6, 2-cyclopropyl-8-(6-methyl-7-oxo-6,7-dihydro-1H-pyrrolo[2,3-c]pyridin-4-yl)-2H-1,4-benzoxazin-3(4H)-one] has an IC50 of at most 1000 nM. `Cn1cc(-c2cccc3c2OC(C2CCOCC2)C(=O)N3)c2cc[nH]c2c1=O` (centres unmarked) [Example 7, 8-(6-methyl-7-oxo-6,7-dihydro-1H-pyrrolo[2,3-c]pyridin-4-yl)-2-(tetrahydro-2H-pyran-4-yl)-2H-1,4-benzoxazin-3(4H)-one] gave an IC50 of at most 1000 nM. `CCC1Oc2c(-c3cn(C)c(=O)c4[nH]ccc34)cccc2N(C)C1=O` (centres unmarked) [Example 8, 2-ethyl-4-methyl-8-(6-methyl-7-oxo-6,7-dihydro-1H-pyrrolo[2,3-c]pyridin-4-yl)-2H-1,4-benzoxazin-3(4H)-one] showed an IC50 of at most 1000 nM. Molecule `COc1cc2c(c(-c3cn(C)c(=O)c4[nH]ccc34)c1)OC(C(C)C)C(=O)N2` (centres unmarked) [Example 9, 2-isopropyl-6-methoxy-8-(6-methyl-7-oxo-6,7-dihydro-1H-pyrrolo[2,3-c]pyridin-4-yl)-2H-1,4-benzoxazin-3(4H)-one] has an IC50 of at most 1000 nM. Work on `COc1cc(-c2cn(C)c(=O)c3[nH]ccc23)c2c(c1)N(C)C(=O)C(C(C)C)O2` (centres unmarked) [Example 10, 2-isopropyl-6-methoxy-4-methyl-8-(6-methyl-7-oxo-6,7-dihydro-1H-pyrrolo[2,3-c]pyridin-4-yl)-2H-1,4-benzoxazin-3(4H)-one] yielded an IC50 of at most 1000 nM. For `CNC(=O)CN1C(=O)C(C(C)C)Oc2c(-c3cn(C)c(=O)c4[nH]ccc34)cc(OC)cc21` (centres unmarked) [Example 12, 2-[2-isopropyl-6-methoxy-8-(6-methyl-7-oxo-6,7-dihydro-1H-pyrrolo[2,3-c]pyridin-4-yl)-3-oxo-2,3-dihydro-4H-1,4-benzoxazin-4-yl]-N-methylacetamide], the IC50 was at most 1000 nM. `COc1cc(-c2cn(C)c(=O)c3[nH]ccc23)c2c(c1)N(CC(N)=O)C(=O)C(C(C)C)O2` (centres unmarked) [Example 13, 2-[2-isopropyl-6-methoxy-8-(6-methyl-7-oxo-6,7-dihydro-1H-pyrrolo[2,3-c]pyridin-4-yl)-3-oxo-2,3-dihydro-4H-1,4-benzoxazin-4-yl]acetamide] was tested, and the IC50 was at most 1000 nM. Work on `COc1cc(-c2cn(C)c(=O)c3[nH]ccc23)c2c(c1)N(CC(=O)N1CCN(C)CC1)C(=O)C(C(C)C)O2` (centres unmarked) [Example 14, 2-isopropyl-6-methoxy-8-(6-methyl-7-oxo-6,7-dihydro-1H-pyrrolo[2,3-c]pyridin-4-yl)-4-[2-(4-methylpiperazin-1-yl)-2-oxoethyl]-2H-1,4-benzoxazin-3(4H)-one] yielded an IC50 of at most 1000 nM. `COc1cc(-c2cn(C)c(=O)c3[nH]ccc23)c2c(c1)N(Cc1ccncc1)C(=O)C(C(C)C)O2` (centres unmarked) [Example 15, 2-isopropyl-6-methoxy-8-(6-methyl-7-oxo-6,7-dihydro-1H-pyrrolo[2,3-c]pyridin-4-yl)-4-(pyridin-4-ylmethyl)-2H-1,4-benzoxazin-3(4H)-one] showed an IC50 of at most 1000 nM. Work on `COc1cc(-c2cn(C)c(=O)c3[nH]ccc23)c2c(c1)N(C(C)C)C(=O)C(C(C)C)O2` (centres unmarked) [Example 16, 2,4-diisopropyl-6-methoxy-8-(6-methyl-7-oxo-6,7-dihydro-1H-pyrrolo[2,3-c]pyridin-4-yl)-2H-1,4-benzoxazin-3(4H)-one] yielded an IC50 of at most 1000 nM. Work on `CC(C)C1Oc2c(cc(C#N)cc2-c2cn(C)c(=O)c3[nH]ccc23)NC1=O` (centres unmarked) [Example 17, 2-isopropyl-8-(6-methyl-7-oxo-6,7-dihydro-1H-pyrrolo[2,3-c]pyridin-4-yl)-3-oxo-3,4-dihydro-2H-1,4-benzoxazine-6-carbonitrile] yielded an IC50 of at most 1000 nM. With `CC(C)C1Oc2c(-c3cn(C)c(=O)c4[nH]ccc34)cc(C#N)cc2N(C)C1=O` (centres unmarked) [Example 18, 2-isopropyl-4-methyl-8-(6-methyl-7-oxo-6,7-dihydro-1H-pyrrolo[2,3-c]pyridin-4-yl)-3-oxo-3,4-dihydro-2H-1,4-benzoxazine-6-carbonitrile] the IC50 was at most 1000 nM.

Same assay, conditions: human myeloma cells, 3 days, concentration required for 50% cell death
For `COc1cc2c(c(-c3cn(C)c(=O)c4[nH]ccc34)c1)OC(c1ccccc1)C(=O)N2` (single isomer, unassigned) [Example 24B, 6-methoxy-8-(6-methyl-7-oxo-6,7-dihydro-1H-pyrrolo[2,3-c]pyridin-4-yl)-2-phenyl-2H-1,4-benzoxazin-3(4H)-one], the IC50 was at most 1000 nM. `COc1cc2c(c(-c3cn(C)c(=O)c4[nH]ccc34)c1)OC(C1CCCC1)C(=O)N2` (single isomer, unassigned) [Example 35B, 2-Cyclopentyl-6-methoxy-8-(6-methyl-7-oxo-6,7-dihydro-1H-pyrrolo[2,3-c]pyridin-4-yl)-2H-1,4-benzoxazin-3(4H)-one] was tested, and the IC50 was at most 1000 nM. Molecule `COc1cc2c(c(-c3cn(C)c(=O)c4[nH]ncc34)c1)OC(C1CCCC1)C(=O)N2` (single isomer, unassigned) [Example 42B, 2-cyclopentyl-6-methoxy-8-(6-methyl-7-oxo-6,7-dihydro-1H-pyrazolo[3,4-c]pyridin-4-yl)-2H-1,4-benzoxazin-3(4H)-one] has an IC50 of at most 1000 nM. `CC(C)C1Oc2c(cc(S(C)(=O)=O)cc2-c2cn(C)c(=O)c3[nH]ccc23)NC1=O` (single isomer, unassigned) [Example 44B, 2-isopropyl-8-(6-methyl-7-oxo-6,7-dihydro-1H-pyrrolo[2,3-c]pyridin-4-yl)-6-(methylsulfonyl)-2H-1,4-benzoxazin-3(4H)-one] showed an IC50 of at most 1000 nM. For `CC(C)C1Oc2c(-c3cn(C)c(=O)c4[nH]ccc34)cc(S(C)(=O)=O)cc2N(C)C1=O` (single isomer, unassigned) [Example 47B, 2-isopropyl-4-methyl-8-(6-methyl-7-oxo-6,7-dihydro-1H-pyrrolo[2,3-c]pyridin-4-yl)-6-(methylsulfonyl)-2H-1,4-benzoxazin-3(4H)-one], the IC50 was at most 1000 nM. `CC(O)c1cc(-c2cn(C)c(=O)c3[nH]ccc23)c2c(c1)N(C)C(=O)C(C)(C)O2` (single isomer, unassigned) [Example 83B, 6-(1-hydroxyethyl)-2,2,4-trimethyl-8-(6-methyl-7-oxo-6,7-dihydro-1H-pyrrolo[2,3-c]pyridin-4-yl)-2H-1,4-benzoxazin-3(4H)-one] was tested, and the IC50 was at most 1000 nM.
